The values below come from ChEMBL document CHEMBL3046236, “The application of comparative molecular field analysis for the design of -anilino substituted-3-phenyl propanoic acids as novel PPAR/ dual ligands” (Med Chem Res, 2012).

In general, EC50 refers to the concentration giving half of the maximal effect.

Test [1] addresses T1, Peroxisome proliferator-activated receptor gamma (Homo sapiens, UniProt P37231).
T1 sequence (P37231 whole entry): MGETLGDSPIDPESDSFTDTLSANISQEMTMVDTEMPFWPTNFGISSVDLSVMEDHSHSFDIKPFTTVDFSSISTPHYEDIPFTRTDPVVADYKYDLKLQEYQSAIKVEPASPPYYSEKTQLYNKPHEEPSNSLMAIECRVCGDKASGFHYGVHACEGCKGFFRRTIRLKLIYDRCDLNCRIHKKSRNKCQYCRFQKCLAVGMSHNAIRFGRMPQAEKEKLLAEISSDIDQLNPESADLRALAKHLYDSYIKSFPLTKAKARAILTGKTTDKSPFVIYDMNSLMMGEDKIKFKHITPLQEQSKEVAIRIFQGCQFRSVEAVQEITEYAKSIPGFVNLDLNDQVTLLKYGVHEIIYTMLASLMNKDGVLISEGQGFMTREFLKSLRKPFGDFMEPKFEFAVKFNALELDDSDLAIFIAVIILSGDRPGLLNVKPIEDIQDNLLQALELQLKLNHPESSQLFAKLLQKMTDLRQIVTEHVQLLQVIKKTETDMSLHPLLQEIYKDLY
Description: Transactivation of Homo sapiens (human) PPARgamma assessed as luciferase activity by reporter gene assay

Test [2] has as its target T2, Peroxisome proliferator-activated receptor alpha (Homo sapiens, UniProt Q07869).
T2 sequence (Q07869 whole entry): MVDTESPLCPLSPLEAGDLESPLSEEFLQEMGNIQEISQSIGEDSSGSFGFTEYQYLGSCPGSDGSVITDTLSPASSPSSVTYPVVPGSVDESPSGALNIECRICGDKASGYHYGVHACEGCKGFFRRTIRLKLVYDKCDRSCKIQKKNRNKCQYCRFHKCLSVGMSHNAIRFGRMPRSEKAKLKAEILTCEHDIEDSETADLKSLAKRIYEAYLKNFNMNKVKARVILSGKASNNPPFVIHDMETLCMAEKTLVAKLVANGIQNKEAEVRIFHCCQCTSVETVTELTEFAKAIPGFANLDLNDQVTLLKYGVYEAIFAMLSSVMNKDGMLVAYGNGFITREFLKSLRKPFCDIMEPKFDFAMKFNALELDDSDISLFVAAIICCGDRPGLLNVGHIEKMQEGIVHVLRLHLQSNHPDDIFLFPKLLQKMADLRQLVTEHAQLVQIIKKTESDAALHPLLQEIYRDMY
Description: Transactivation of Homo sapiens (human) PPARalpha assessed as luciferase activity by reporter gene assay. On the technique in general: In a reporter assay the amount or activity of a reporter protein is the signal.

For `CCO[C@@H](Cc1ccc(OC/C=C(/c2ccccc2)c2ccc(F)cc2)cc1)C(=O)O`, the values for the EC50 in test [1] and in test [2] were 8510 nM and 5250 nM, respectively. As to `CCO[C@@H](Cc1ccc(OC/C=C(/c2ccccc2)c2ccc(-c3ccccc3)cc2)cc1)C(=O)O`, in test [2], the EC50 was 891 nM.

`CCO[C@@H](Cc1ccc(OC/C=C(\c2ccccc2)c2ccc(Br)cc2)cc1)C(=O)O`: the concentration for a half-maximal effect (EC50) in test [1] was 4270 nM; in test [2], 2190 nM. With `Cc1oc(C2CCCCC2)nc1CCOc1ccc(C[C@H](Oc2ccccc2)C(=O)O)cc1`, the EC50 in test [1] and in test [2] was 1 nM throughout. With `Cc1sc(-c2ccncc2)nc1CCOc1ccc(C[C@H](Nc2ccccc2C(=O)c2ccccc2)C(=O)O)cc1`, the EC50 in test [2] is above 10000 nM. On the same count and under the same terms, to `CCO[C@@H](Cc1ccc(OCC=C(c2ccc(C)cc2)c2ccc(C)cc2)cc1)C(=O)O` belongs 692 nM. Turning to `CC(C)O[C@@H](Cc1ccc(OCc2noc(-c3cc(C(F)(F)F)cc(C(F)(F)F)c3)n2)cc1)C(=O)O`, the values for the half-maximal effective concentration (EC50) in test [1] and in test [2] were 31.6 nM and 3.98 nM, respectively. In the same order, the values of `CC(C)O[C@H](Cc1ccc(OCc2noc(-c3cc(C(F)(F)F)cc(C(F)(F)F)c3)n2)cc1)C(=O)O` are 631 nM and 2510 nM.
